These results are taken from US7772241B2, “Variolin derivatives and their use as antitumor agents” (Pharma Mar S.A., priority 2001, dated 2010).

In one series the test system is A-549. As to the kind of experiment: Inhibition of cells growth by colorimetric (SRB) assay, A-549. Summed up: (§1)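 Read-out is sulforhodamine B protein stain (OD 490 nm) after cold TCA fixation, following 48 h continuous exposure to samples spanning 10 to 10^−8 μg/ml.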
The test system of the next series is HT-29. The series is described as follows: Inhibition of cells growth by colorimetric (SRB) assay, HT-29. As to conditions: for CC50: read-out: LC50 HT-29, SRB assay, 48 hours exposure. Summed up:
as §1

Series [1] is described as follows: Inhibition of cells growth by colorimetric (SRB) assay, HMEC1. As to conditions: human, HMEC1 cells, LC50 H-MEC-1, SRB assay, 48 hours exposure. Background: The SRB assay estimates cell density from bound dye.
The test system of the next series is HMEC1. Described as above. As to conditions: for GI50: Homo sapiens, HMEC-1, 48 h, read-out: GI50 H-MEC-1, SRB assay, 48 hours exposure; for TGI H-MEC-1: SRB assay, 48 hours exposure, in M (unit assumed).
For the next series, the system named is K-562. As to the kind of experiment: Inhibition of cells growth by colorimetric (SRB) assay, K-562. As to conditions: for GI50 / CC50: Homo sapiens, K562, 48 h; for GI50: read-out: GI50 K-562, SRB assay, 48 hours exposure; for CC50: read-out: LC50 K-562, SRB assay, 48 hours exposure; for TGI K-562: SRB assay, 48 hours exposure. Summed up: as §1
Another series has as its system IGROV-ET. The series is described as follows: Inhibition of cells growth by colorimetric (SRB) assay, IGROV-ET. As to conditions: for GI50 / CC50: Homo sapiens, 48 h; for GI50: read-out: GI50 IGROV-ET, SRB assay, 48 hours exposure; for CC50: read-out: LC50 IGROV-ET, SRB assay, 48 hours exposure; for TGI IGROV-ET: SRB assay, 48 hours exposure. A digest of the protocol:
as §1

A further series has as its system LNCaP. As to the kind of experiment: Inhibition of cells growth by colorimetric (SRB) assay, LNCaP. As to conditions: for GI50 / CC50: Homo sapiens, LNCaP, 48 h; for GI50: read-out: GI50 LN-caP, SRB assay, 48 hours exposure; for CC50: read-out: LC50 LN-caP, SRB assay, 48 hours exposure; for TGI LN-caP: SRB assay, 48 hours exposure. A digest of the protocol:
as §1

The subject of the next series is SK-MEL-28. As to the kind of experiment: Inhibition of cells growth by colorimetric (SRB) assay, SK-MEL-28. As to conditions: for GI50: read-out: GI50 MEL-28, SRB assay, 48 hours exposure. Summed up:
as §1

The next series has as its system PANC-1. As to the kind of experiment: Inhibition of cells growth by colorimetric (SRB) assay, PANC-1. As to conditions: for GI50: read-out: GI50 PANC-1, SRB assay, 48 hours exposure. A digest of the protocol:
as §1

The next series deals with SK-BR-3. The series is described as follows: Inhibition of cells growth by colorimetric (SRB) assay, SK-BR-3. A digest of the protocol: as §1
Another series concerns DU-145. As to the kind of experiment: Inhibition of cells growth by colorimetric (SRB) assay, DU-145. As to conditions: for GI50: read-out: GI50 DU-145, SRB assay, 48 hours exposure. A digest of the protocol:
as §1

The next series has as its system IGROV-1. The series is described as follows: Inhibition of cells growth by colorimetric (SRB) assay, IGROV-1. As to conditions: for GI50 / CC50: Homo sapiens, IGROV-1, 48 h; for GI50: read-out: GI50 IGROV, SRB assay, 48 hours exposure; for CC50: read-out: LC50 IGROV, SRB assay, 48 hours exposure; for TGI IGROV: SRB assay, 48 hours exposure. Summed up:
as §1

A further series has as its system LoVo. As to the kind of experiment: Inhibition of cells growth by colorimetric (SRB) assay, LoVo. Summed up: as §1
A further series deals with LoVo-Dox. The series is described as follows: Inhibition of cells growth by colorimetric (SRB) assay, LoVo-Dox. Summed up:
as §1

Setting [2] is: Homo sapiens, A549, 48 h, read-out: GI50 A-549, SRB assay, 48 hours exposure.
Setting [3] is: Homo sapiens, A549, 48 h, read-out: LC50 A-549, SRB assay, 48 hours exposure.
The mark [4] stands for this setting: Homo sapiens, HT-29, 48 h, read-out: GI50 HT-29, SRB assay, 48 hours exposure.

Molecules are shown by their SMILES. Where two headings read alike, the source gives them in different places.

As a reminder, the GI50 is the concentration at which growth is held to half of that of the control. With `CSc1nccc(-c2c3c(OCc4ccccc4)ccnc3n3c(N)nccc23)n1` [Compound 94], the GI50 amounted to 24.1 µM with A-549 (setting [2]), 24.1 µM in the series on HT-29 (setting [4]) and 9.19 µM in the series on HMEC1. In addition, the CC50 was 24.1 µM with A-549 (setting [3]) and 24.1 µM in the series with HT-29 (Homo sapiens, HT-29, 48 h). Moreover, in the series on A-549 (SRB assay, 48 hours exposure), the “TGI A-549” value turned out to be 2.41E−05. For the same molecule, the “TGI HT-29” value with HT-29 (SRB assay, 48 hours exposure) is reported as 2.41E−05. In series [1], the CC50 at 48 h came to 24.1 µM. The “TGI H-MEC-1” value in the series on HMEC1 was found to be 1.97E−05.
For `CS(=O)(=O)c1nccc(-c2c3c(OCc4ccccc4)ccnc3n3c(N)nccc23)n1` [Compound 99], the values for the GI50 in the series on A-549 (setting [2]), with HT-29 (setting [4]) and in the series with HMEC1 were 22.4 µM, 22.4 µM and 8.2 µM, respectively. Moreover, the CC50 amounted to 22.4 µM with A-549 (setting [3]) and 22.4 µM in the series on HT-29 (Homo sapiens, HT-29, 48 h). In addition, the “TGI A-549” value in the series with A-549 (SRB assay, 48 hours exposure) amounted to 2.24E−05. Further, the “TGI HT-29” value with HT-29 (SRB assay, 48 hours exposure) is recorded as 2.24E−05. The molecule also gave a CC50 at 48 h in series [1] of 22.4 µM. Also, the “TGI H-MEC-1” value in the series with HMEC1 is 2.24E−05.
As to `COc1nccc(-c2c3c(OCc4ccccc4)ccnc3n3c(N)nccc23)n1` [Compound 102], the figures for the GI50 in the series on A-549 (setting [2]), in the series with HT-29 (setting [4]) and in the series with HMEC1 were 25.1 µM, 25.1 µM and 6 µM, respectively. For the same molecule, the CC50 worked out at 25.1 µM in the series with A-549 (setting [3]) and 25.1 µM with HT-29 (Homo sapiens, HT-29, 48 h). Further, in the series with A-549 (SRB assay, 48 hours exposure), the “TGI A-549” value stood at 2.51E−05. The “TGI HT-29” value with HT-29 (SRB assay, 48 hours exposure) was 2.51E−05. The CC50 at 48 h in series [1] is 19.7 µM. In the series on HMEC1, the “TGI H-MEC-1” value amounted to 1.09E−05.
In the case of `COc1nccc(-c2c3c(OC)ccnc3n3c(N)nccc23)n1` [Compound 109], the GI50 was determined as 7.6 µM in the series on K-562; 5.49 µM with A-549 (setting [2]); 7.17 µM in the series with IGROV-ET; 1.4 µM in the series with LNCaP; 1.26 µM with SK-MEL-28 (Homo sapiens, SK-MEL-28, 48 h); 9.4 µM with PANC-1 (Homo sapiens, PANC-1, 48 h). Further, the concentration for 50% growth inhibition (GI50) with SK-BR-3 (Homo sapiens, SK-BR-3, 48 h, read-out: GI50 SK-BR-3, SRB assay, 48 hours exposure) is 1.47 µM; in the series on HMEC1 it was 2.04 µM; with DU-145 (Homo sapiens, DU-145, 48 h), 1.63 µM; in the series on IGROV-1, 3.07 µM. For the same molecule, the CC50 in the series with K-562 came to 31 µM; in the series on A-549 (setting [3]), 31 µM; in the series on IGROV-ET it was 31 µM; in the series with LNCaP, 31 µM; in the series on SK-MEL-28 (Homo sapiens, SK-MEL-28, 48 h, read-out: LC50 MEL-28, SRB assay, 48 hours exposure), 22.4 µM; in the series with SK-BR-3 (Homo sapiens, SK-BR-3, 48 h, read-out: LC50 SK-BR-3, SRB assay, 48 hours exposure), 31 µM. For the same molecule, the CC50 with DU-145 (Homo sapiens, DU-145, 48 h, read-out: LC50 DU-145, SRB assay, 48 hours exposure) turned out to be 31 µM; with IGROV-1 it was 31 µM. Moreover, in the series with K-562, the “TGI K-562” value is reported as 2.41E−05. Moreover, in the series with A-549 (SRB assay, 48 hours exposure), the “TGI A-549” value is 2.33E−05. Further, in the series with IGROV-ET, the “TGI IGROV-ET” value amounted to 2.21E−05. For the same molecule, the “TGI LN-caP” value with LNCaP stood at 4.81E−06. Besides, in the series on SK-MEL-28 (SRB assay, 48 hours exposure), the “TGI MEL-28” value is given as 6.64E−06. Besides, the “TGI SK-BR-3” value in the series with SK-BR-3 (SRB assay, 48 hours exposure) amounted to 5.40E−06. The molecule further returned a CC50 at 48 h in series [1] of 31 µM. Also, the “TGI H-MEC-1” value in the series with HMEC1 turned out to be 2.17E−05. Further, the “TGI DU-145” value with DU-145 (SRB assay, 48 hours exposure) is reported as 3.10E−05. Besides, the “TGI IGROV” value in the series with IGROV-1 is 1.46E−05.
On to `COc1ccnc2c1c(-c1ccnc(N)n1)c1ccnc(N)n12` [Compound 114], for which the GI50 was found to be 1.7 µM in the series on K-562; 0.553 µM in the series on A-549 (read-out: GI50 A-549, SRB assay, 48 hours exposure); 1.51 µM in the series with IGROV-ET; 0.625 µM in the series on LNCaP; 0.605 µM in the series with SK-MEL-28 (Homo sapiens, SK-MEL-28, 48 h); 1.35 µM with PANC-1 (Homo sapiens, PANC-1, 48 h). For the same molecule, the GI50 with LoVo (Homo sapiens, LoVo, 48 h, read-out: GI50 LOVO, SRB assay, 48 hours exposure) came out at 0.54 µM; in the series with HT-29 (read-out: GI50 HT-29, SRB assay, 48 hours exposure), 1.04 µM; with LoVo-Dox (Homo sapiens, 48 h, read-out: GI50 LOVO-DOX, SRB assay, 48 hours exposure), 0.827 µM; with HMEC1, 0.67 µM; in the series with DU-145 (Homo sapiens, DU-145, 48 h) it was 0.732 µM; in the series on IGROV-1, 0.843 µM. Further, the CC50 in the series with K-562 turned out to be 16.2 µM; with A-549 (read-out: LC50 A-549, SRB assay, 48 hours exposure), 8.23 µM; with IGROV-ET, 25.4 µM; in the series on LNCaP, 2.35 µM; with SK-MEL-28 (read-out: LC50 MEL-28, SRB assay, 48 hours exposure), 2.4 µM; in the series on PANC-1 (Homo sapiens, PANC-1, 48 h, read-out: LC50 PANC-1, SRB assay, 48 hours exposure), 32.5 µM. Moreover, the CC50 was 10.3 µM with LoVo (read-out: LC50 LOVO, SRB assay, 48 hours exposure); 32.5 µM with HT-29 (Homo sapiens, HT-29, 48 h); 32.5 µM in the series with LoVo-Dox (Homo sapiens, 48 h, read-out: LC50 LOVO-DOX, SRB assay, 48 hours exposure); 6.22 µM with DU-145 (read-out: LC50 DU-145, SRB assay, 48 hours exposure); 15.8 µM with IGROV-1. In addition, the “TGI K-562” value in the series with K-562 amounted to 2.98E−06. Besides, in the series on A-549 (SRB assay, 48 hours exposure), the “TGI A-549” value was 1.72E−06. Also, the “TGI IGROV-ET” value with IGROV-ET is recorded as 3.29E−06. In the series with LNCaP, the “TGI LN-caP” value is on record as 1.21E−06. Besides, the “TGI MEL-28” value with SK-MEL-28 (SRB assay, 48 hours exposure) came out at 1.20E−06. For the same molecule, the “TGI PANC-1” value with PANC-1 (SRB assay, 48 hours exposure) is 6.18E−06. In addition, in the series on LoVo (SRB assay, 48 hours exposure), the “TGI LOVO” value stood at 1.98E−06. In addition, the “TGI HT-29” value with HT-29 (SRB assay, 48 hours exposure) is on record as 3.25E−06. The “TGI LOVO-DOX” value with LoVo-Dox (SRB assay, 48 hours exposure) was 2.41E−06. In series [1], this molecule yielded a CC50 at 48 h of 2.65 µM. The “TGI H-MEC-1” value in the series on HMEC1 was found to be 1.33E−06. Further, the “TGI DU-145” value in the series on DU-145 (SRB assay, 48 hours exposure) is given as 1.75E−06. For the same molecule, in the series with IGROV-1, the “TGI IGROV” value came to 1.81E−06.
